Results on 23 compounds are retold here after ChEMBL document CHEMBL1201862, “PubChem BioAssay data set” (2004).

Active and inactive are the calls of the source. Cut-off read from the data, not from the text of the source: actives have a measured EC50 and inactives only a lower limit. A value given as a limit tells only on which side of the number the result lay.

One assay has as its system Streptococcus. The assay is described as follows: GAS UMAA2166 growth inhibition – luminescence, BacTiterGlo, counter-screen for streptokinase expression inhibitor project, dose response (AID 1915).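 Note: potency for reduction of bacterial viability or growth.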 It is filed as functional, organism-based. Background: Counterscreens check selectivity or assay interference.
The test system of assay [1] is Streptococcus sp. 'group A'. In words: Streptococcus pyogenes SK(-)GAS viability under kanamycin – luminescence, BacTiterGlo, confirmation, counter-screen for streptokinase expression inhibitor project, dose response (AID 1900). It counts as functional, organism-based.
The target in a further assay is T1, Streptokinase A (Streptococcus pyogenes serotype M1, UniProt P10520).
T1 sequence (P10520 whole entry): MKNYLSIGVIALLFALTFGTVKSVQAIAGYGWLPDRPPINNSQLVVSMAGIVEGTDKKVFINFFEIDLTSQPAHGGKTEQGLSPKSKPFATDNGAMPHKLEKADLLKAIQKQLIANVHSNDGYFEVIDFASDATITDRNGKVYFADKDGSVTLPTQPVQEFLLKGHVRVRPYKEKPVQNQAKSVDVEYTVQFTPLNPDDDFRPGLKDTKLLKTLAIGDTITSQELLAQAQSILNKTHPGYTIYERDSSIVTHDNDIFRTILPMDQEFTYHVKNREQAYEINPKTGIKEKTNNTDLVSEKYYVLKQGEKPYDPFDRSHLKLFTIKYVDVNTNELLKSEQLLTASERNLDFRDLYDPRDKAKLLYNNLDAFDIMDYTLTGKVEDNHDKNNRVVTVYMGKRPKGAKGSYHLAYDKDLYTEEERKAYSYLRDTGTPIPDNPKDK
The assay is described as follows: viability-normalized secreted streptokinase activity reduction – plasminogen activation absorbance, OD405, dose response (AID 1914).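 Note: secreted streptokinase activity via plasminogen activation per viability signal from cell pellet.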 It is filed as functional, Streptococcus pyogenes M1 GAS.

A short description of assay [2]: NIH3T3 cell viability loss – ATP luminescence, mouse fibroblasts, counter-screen, dose response (AID 2010).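 Note: cells exposed to compound for about 90 hours before reading.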 It is filed as functional, cell-based.
Assay [3] in a line: Trypanosoma cruzi growth suppression in host cells – NIH3T3 host cells, beta-gal luminescence, confirmation (AID 2044).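 Note: intracellular parasites grown in NIH/3T3 mouse fibroblasts as host cells; luminescent beta-galactosidase reporter signal from transgenic T. cruzi replicating inside host cells; inhibitors lower the luminescence signal.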 It is filed as functional, cell-based.

Usually EC50 stands for the concentration needed to bring the measured effect to its halfway point. For `O=C(OCc1ccc(COC(=O)c2ccc(O)cc2)cc1)c1ccc(O)cc1`, the EC50 with Streptococcus was 8.51 µM (active); in assay [1], 5.67 µM (active); at Streptokinase A it was > 150 µM (not active).

Consider `Cc1ccc(CCNC(=O)CN=C(S)N(Cc2ccccc2)Cc2cccnc2)cc1`, for which the concentration for a half-maximal effect (EC50) in assay [2] is > 60 µM (not active); in assay [3], 1.28 µM (active).

For the compound `Cc1ccc2nc3c(cc(S(=O)(=O)c4ccccc4)c(=N)n3Cc3ccco3)c(=O)n2c1`, the EC50 in assay [2] is > 60 µM (not active); in assay [3], 3 µM (active).

For the compound `CCC(C)n1c(C)nc2c(c1=O)c1nc3ccccc3nc1n2CCC1=CCCCC1` (stereo unspecified), the EC50 in assay [2] was > 60 µM (not active); in assay [3], 3.7 µM (active).

As to `COc1ccc(C(=O)C2CCCN(Cc3sc(N4CCCC4)nc3Cl)C2)c(OC)c1` (stereo unspecified), the 50% effective concentration (EC50) was > 60 µM (not active) in assay [2] and 0.927 µM (active) in assay [3].

In the case of `CCCOC(=O)c1ccc(Oc2c(-c3ccc(OCC)cc3O)n[nH]c2C)cc1`, the EC50 at Streptokinase A was > 150 µM (not active).

On to `Cc1ccc(OCCCCN2CCCCC2)c(Br)c1`, for which the EC50 in assay [2] was > 60 µM (not active); in assay [3] it was 2.16 µM (active).

As for `CCc1c(-c2ccccc2)nc2sc3c(c2c1N)CCCC3`, the EC50 in assay [2] was > 60 µM (not active); in assay [3] it was 2.01 µM (active).

Turning to `CCC(C)Oc1cc(-c2ccnc(Nc3cccc(Cl)c3)n2)ccn1` (stereo unspecified), the EC50 was 7.53 µM (active) in assay [2] and 1.7 µM (active) in assay [3].

`CC(C)CCNC(=O)C1CCC(CNS(=O)(=O)c2cccc3nsnc23)CC1` (stereo unspecified): the EC50 in assay [2] and in assay [3] was > 30 µM (not active) throughout.

With `Cc1ccc(C(C)C)c(OCC(=O)NC2CCN(C)CC2)c1`, the EC50 in assay [2] is > 60 µM (not active); in assay [3], 1.21 µM (active).

For the compound `O=C(Nc1cccc(S(=O)(=O)c2cccc(NC(=O)c3ccco3)c2)c1)c1ccco1`, the figures for the EC50 in assay [2] and in assay [3] were > 60 µM (not active) and 0.869 µM (active), respectively.

As to `CN(Cc1ccccc1)Cc1c[nH]c2ccccc12`, the figures for the EC50 in assay [2] and in assay [3] were > 60 µM (not active) and 0.972 µM (active), respectively.

With `Cc1cc2c(c(=O)n1Cc1ccc3c(c1)OCO3)C(c1cccnc1)C(C#N)=C(N)O2` (stereo unspecified), the EC50 in assay [2] was > 60 µM (not active); in assay [3], 1.94 µM (active).

With `c1ccc(CCn2nnnc2C(c2cccnc2)N2CCN(c3ccccc3)CC2)cc1` (stereo unspecified), the EC50 in assay [2] is 4.77 µM (active); in assay [3], 0.263 µM (active).

For the compound `N#C/C(=C(/O)COc1ccccc1)c1nc2ccccc2s1`, the EC50 was > 150 µM (not active) with Streptococcus, 26.7 µM (active) in assay [1] and 7.55 µM (active) on Streptokinase A.

`COc1ccc2nc(N=C(N)N=C(S)Nc3c(C)cccc3C)nc(C)c2c1`: the figures for the EC50 (in the assay with Streptococcus; in assay [1]) were > 150 µM (not active) and 21.7 µM (active), respectively.

For the compound `COc1ccc2nc(N=C(N)NC(=S)Nc3c(C)cccc3C)nc(C)c2c1`, on Streptokinase A, the EC50 is 42 µM (inconclusive).

With `Cc1ccc(NC(=O)N(Cc2cccnc2)Cc2ccco2)cc1C`, the EC50 in assay [2] is > 60 µM (not active); in assay [3] it was 1.39 µM (active).

`c1cnc2ccc(C(c3nnnn3C3CCCCC3)N3CCN(C4CCCCC4)CC3)cc2c1` (stereo unspecified): the EC50 in assay [2] was 4.37 µM (active); in assay [3], 8.47 µM (active).

Regarding `O=C(Nc1cccc(Cl)c1)Nc1ccccc1-n1ccnc1`, the figures for the EC50 in assay [2] and in assay [3] were > 60 µM (not active) and 0.461 µM (active), respectively.

On to `Cc1ccc2c(c1)C1CN(C)CCC1N2C(=O)c1cccc(S(=O)(=O)N2CC(C)CC(C)C2)c1` (stereo unspecified), for which the EC50 was > 30 µM (not active) in assay [2] and 0.216 µM (active) in assay [3].

In the case of `CC(C)c1ccc2c(c1)c(SC(C)(C)C)c(CC(C)(C)C(=O)O)n2Cc1ccc(Cl)cc1`, the EC50 in assay [1] was 1.07 µM (active); on Streptokinase A, 1.24 µM (active).
